Reference: ChEMBL document CHEMBL1155947, “Discovery of a novel series of benzoic acid derivatives as potent and selective human beta3 adrenergic receptor agonists with good oral bioavailability. 3. Phenylethanolaminotetraline (PEAT) skeleton containing biphenyl or biphenyl ether moiety” (J Med Chem, 2008)
pEC50: −log10 of the molar value.

Tests used:
[1] = Terminal half life in dog at 0.1 mg/mL, iv by cassette assay; assay type: ADME, organism-based, Canis lupus familiaris; conditions: in vivo
[2] = Cmax in dog at 0.2 mg/kg, po by cassette assay; assay type: ADME, organism-based, Canis lupus familiaris; parameters: dose 0.2 mg/kg, route oral; conditions: in vivo
[3] = Bioavailability in dog at 0.1 mg/mL, iv by cassette assay; assay type: ADME, organism-based, Canis lupus familiaris; conditions: in vivo
[4] = AUC (0 to 24 hrs) in dog at 0.2 mg/kg, po by cassette assay; assay type: ADME, organism-based, Canis lupus familiaris; parameters: time < 24 hr, dose 0.2 mg/kg, route oral; conditions: plasma
[5] = target: Beta-2 adrenergic receptor (Homo sapiens, UniProt P07550); test: Agonist activity at human beta2 adrenergic receptor expressed in CHO cells assessed as cAMP accumulation; assay type: functional, cell-based
Sequence of Beta-2 adrenergic receptor (P07550 whole entry): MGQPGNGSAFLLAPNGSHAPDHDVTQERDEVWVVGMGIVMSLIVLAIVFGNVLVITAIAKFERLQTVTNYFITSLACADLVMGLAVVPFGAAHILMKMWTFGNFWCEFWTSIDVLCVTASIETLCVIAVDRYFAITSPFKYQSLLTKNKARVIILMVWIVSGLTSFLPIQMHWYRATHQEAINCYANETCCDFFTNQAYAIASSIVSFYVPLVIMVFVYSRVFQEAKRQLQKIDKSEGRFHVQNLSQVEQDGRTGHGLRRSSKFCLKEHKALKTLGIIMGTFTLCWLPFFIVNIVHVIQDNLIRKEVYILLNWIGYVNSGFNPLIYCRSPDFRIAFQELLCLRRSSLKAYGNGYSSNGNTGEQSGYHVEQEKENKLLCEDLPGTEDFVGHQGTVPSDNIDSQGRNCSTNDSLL

Canis familiaris [6] = test: Ratio of AUC for drug to AUC for 4-((7S)-7-{[(2R)-2-(3-Chlorophenyl)-2-hydroxyethyl]amino}-5,6,7,8-tetrahydro-2-naphthalenyl)benzoic acid hydrochloride in dog at 0.1 or 0.20 mg/kg, po by cassette dosing assay; assay type: ADME, organism-based, Canis lupus familiaris; parameters: dose 0.2 mg/kg, route oral; conditions: in vivo, 0.2 mg/kg
[7] = target: Beta-3 adrenergic receptor (Homo sapiens, UniProt P13945); test: Agonist activity at human cloned beta3 adrenergic receptor expressed in CHO cells assessed as cAMP accumulation; assay type: functional, cell-based
Sequence of Beta-3 adrenergic receptor (Homo sapiens, UniProt P13945) (P13945 whole entry): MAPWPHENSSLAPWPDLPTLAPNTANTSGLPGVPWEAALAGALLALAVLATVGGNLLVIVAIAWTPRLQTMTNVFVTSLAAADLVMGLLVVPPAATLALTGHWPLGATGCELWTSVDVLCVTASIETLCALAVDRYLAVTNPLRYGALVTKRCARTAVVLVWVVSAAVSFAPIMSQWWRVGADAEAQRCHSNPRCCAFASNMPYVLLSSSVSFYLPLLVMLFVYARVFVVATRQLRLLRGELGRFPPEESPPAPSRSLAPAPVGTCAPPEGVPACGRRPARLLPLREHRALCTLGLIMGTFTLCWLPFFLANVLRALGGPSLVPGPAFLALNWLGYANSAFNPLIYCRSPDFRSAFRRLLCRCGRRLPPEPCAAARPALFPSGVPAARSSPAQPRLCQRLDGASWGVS

Homo sapiens = species: Homo sapiens; test: Ratio of EC50 for human cloned beta-1 adrenergic receptor to EC50 for human cloned beta3 adrenergic receptor
Canis familiaris [8] = test: Ratio of Cmax for drug to Cmax for 4-((7S)-7-{[(2R)-2-(3-Chlorophenyl)-2-hydroxyethyl]amino}-5,6,7,8-tetrahydro-2-naphthalenyl)benzoic acid hydrochloride in dog at 0.1 or 0.20 mg/kg, po by cassette dosing assay; assay type: ADME, organism-based, Canis lupus familiaris; parameters: dose 0.2 mg/kg, route oral; conditions: in vivo, 0.2 mg/kg
[9] = Total clearance in dog at 0.1 mg/mL, iv by cassette assay; assay type: ADME, organism-based, Canis lupus familiaris; conditions: in vivo
[10] = target: Beta-1 adrenergic receptor (Homo sapiens, UniProt P08588)
Sequence of Beta-1 adrenergic receptor (P08588 whole entry): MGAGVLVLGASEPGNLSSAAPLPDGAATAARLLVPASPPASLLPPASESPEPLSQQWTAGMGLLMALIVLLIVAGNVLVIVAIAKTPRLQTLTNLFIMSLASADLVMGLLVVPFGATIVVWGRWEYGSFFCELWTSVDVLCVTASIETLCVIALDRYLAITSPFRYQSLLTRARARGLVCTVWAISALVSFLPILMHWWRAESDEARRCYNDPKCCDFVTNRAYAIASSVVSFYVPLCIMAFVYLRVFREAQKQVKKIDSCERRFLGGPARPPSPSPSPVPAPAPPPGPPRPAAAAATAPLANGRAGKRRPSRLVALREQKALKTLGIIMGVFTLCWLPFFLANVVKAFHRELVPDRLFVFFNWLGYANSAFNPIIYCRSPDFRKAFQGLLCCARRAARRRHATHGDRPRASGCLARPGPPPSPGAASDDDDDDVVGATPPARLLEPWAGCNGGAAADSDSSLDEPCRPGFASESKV
Description: Agonist activity at human cloned beta-1 adrenergic receptor expressed in CHO cells assessed as cAMP accumulation

[11] = Oral bioavailability in dog at 0.1 mg/kg by cassette assay; assay type: ADME, organism-based, Canis lupus familiaris; conditions: in vivo
[12] = Cmax in monkey at 1.0 mg/kg, po by cassette assay; assay type: ADME, organism-based, Macaca mulatta; parameters: dose 1 mg/kg, route oral; conditions: rhesus monkey, in vivo
[13] = AUC (0 to 24 hrs) in dog at 0.21 mg/kg, po by cassette assay; assay type: ADME, organism-based, Canis lupus familiaris; parameters: time < 24 hr, dose 0.21 mg/kg, route oral; conditions: plasma
[14] = AUC (0 to 24 hrs) in rat at 0.52 mg/kg, po by cassette assay; assay type: ADME, organism-based; parameters: time < 24 hr, dose 0.52 mg/kg, route oral; conditions: plasma
Canis familiaris [15] = test: Ratio of AUC for drug to AUC for 3-[((7S)-7-{[(2R)-2-(3-Chlorophenyl)-2-hydroxyethyl]amino}-5,6,7,8-tetrahydro-2-naphthalenyl)oxy]benzoic acid hydrochloride in dog at 0.1 or 0.20 mg/kg, po by cassette dosing assay; assay type: ADME, organism-based, Canis lupus familiaris; parameters: dose 0.2 mg/kg, route oral; conditions: in vivo, 0.2 mg/kg
[16] = Terminal half life in rat at 0.50 mg/kg, iv by cassette assay; assay type: ADME, organism-based; parameters: dose 0.5 mg/kg, route intravenous; conditions: in vivo, 0.5 mg/kg
[17] = Oral bioavailability in monkey at 0.32 mg/kg by cassette assay; assay type: ADME, organism-based, Macaca mulatta; conditions: rhesus monkey, in vivo
[18] = Total clearance in rat at 0.50 mg/kg, iv by cassette assay; assay type: ADME, organism-based; parameters: dose 0.5 mg/kg, route intravenous; conditions: in vivo, 0.5 mg/kg
[19] = Terminal half life in dog at 0.1 mg/kg, iv by cassette assay; assay type: ADME, organism-based, Canis lupus familiaris; parameters: dose 0.1 mg/kg, route intravenous; conditions: in vivo
[20] = Cmax in rat at 0.52 mg/kg, po by cassette assay; assay type: ADME, organism-based; parameters: dose 0.52 mg/kg, route oral; conditions: in vivo
[21] = Oral bioavailability in rat at 0.50 mg/kg by cassette assay; assay type: ADME, organism-based; conditions: in vivo, 0.5 mg/kg
[22] = Total clearance in dog at 0.1 mg/kg, iv by cassette assay; assay type: ADME, organism-based, Canis lupus familiaris; parameters: dose 0.1 mg/kg, route intravenous; conditions: in vivo
[23] = Terminal half life in monkey at 0.32 mg/kg, iv by cassette assay; assay type: ADME, organism-based, Macaca mulatta; parameters: dose 0.32 mg/kg, route intravenous; conditions: rhesus monkey, in vivo
Canis familiaris [24] = test: Ratio of Cmax for drug to Cmax for 3-[((7S)-7-{[(2R)-2-(3-Chlorophenyl)-2-hydroxyethyl]amino}-5,6,7,8-tetrahydro-2-naphthalenyl)oxy]benzoic acid hydrochloride in dog at 0.1 or 0.20 mg/kg, po by cassette dosing assay; assay type: ADME, organism-based, Canis lupus familiaris; parameters: dose 0.2 mg/kg, route oral; conditions: in vivo, 0.2 mg/kg
[25] = Total clearance in monkey at 0.32 mg/kg, iv by cassette assay; assay type: ADME, organism-based, Macaca mulatta; parameters: dose 0.32 mg/kg, route intravenous; conditions: rhesus monkey, in vivo
[26] = AUC (0 to 24 hrs) in monkey at 1.0 mg/kg, po by cassette assay; assay type: ADME, organism-based, Macaca mulatta; parameters: time < 24 hr, dose 1 mg/kg, route oral; conditions: rhesus monkey, plasma
[27] = Cmax in dog at 0.21 mg/kg, po by cassette assay; assay type: ADME, organism-based, Canis lupus familiaris; parameters: dose 0.21 mg/kg, route oral; conditions: in vivo
[28] = target: Beta-3 adrenergic receptor (Canis lupus familiaris, UniProt O02662); test: Agonist activity at dog beta3 adrenergic receptor expressed in CHO cells assessed as cAMP accumulation; assay type: functional, cell-based
Sequence of Beta-3 adrenergic receptor (Canis lupus familiaris, UniProt O02662) (O02662 whole entry): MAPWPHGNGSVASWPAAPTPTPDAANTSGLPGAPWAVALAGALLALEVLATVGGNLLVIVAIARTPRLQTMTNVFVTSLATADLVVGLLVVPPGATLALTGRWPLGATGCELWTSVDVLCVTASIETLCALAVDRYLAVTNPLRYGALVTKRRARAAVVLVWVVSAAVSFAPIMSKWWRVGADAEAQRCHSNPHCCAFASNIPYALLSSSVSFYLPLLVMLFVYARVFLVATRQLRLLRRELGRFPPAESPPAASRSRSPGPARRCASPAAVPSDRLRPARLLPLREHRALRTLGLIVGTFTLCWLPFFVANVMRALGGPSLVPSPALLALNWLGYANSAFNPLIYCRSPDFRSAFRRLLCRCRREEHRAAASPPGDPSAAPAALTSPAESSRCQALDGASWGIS

Canis familiaris [29] = test: Inhibition of carbachol-induced increase of intravesical pressure in Beagle dog OAB model at 32 ug/kg,; assay type: functional; conditions: Canis lupus familiaris
[30] = Protein binding in Beagle dog serum at 32 ug/kg, iv; assay type: ADME, organism-based, Canis lupus familiaris; conditions: 0.032 mg/kg, read-out: PB (converted)
[31] = Cmax in rat at 0.5 mg/kg, po by cassette assay; assay type: ADME, organism-based; parameters: dose 0.5 mg/kg, route oral; conditions: in vivo
[32] = AUC (0 to 24 hrs) in rat at 0.5 mg/kg, po by cassette assay; assay type: ADME, organism-based; parameters: time < 24 hr, dose 0.5 mg/kg, route oral; conditions: plasma
[33] = Selectivity for human beta3 adrenergic receptor over dog beta3 adrenergic receptor
[34] = Cmax in monkey at 0.32 mg/kg, po; assay type: ADME, organism-based, Macaca mulatta; parameters: dose 0.32 mg/kg, route oral; conditions: rhesus monkey, in vivo
[35] = AUC (0 to 24 hrs) in monkey at 0.32 mg/kg, po; assay type: ADME, organism-based, Macaca mulatta; parameters: time < 24 hr, dose 0.32 mg/kg, route oral; conditions: rhesus monkey, plasma

Compound	Cmax [2] [ng/mL]	AUC(0-t) at 24 h [4] [ng·h/mL]	pEC50 [5]	Ratio AUC (Canis familiaris [6])	pEC50 [7]	Ratio EC50 (Homo sapiens)	Ratio (Canis familiaris [8])	pEC50 [10]	bioavailability [11] [%]	half-life [19] [h]	clearance [22] [mL/min/kg]	further results
COc1cc(-c2ccc3c(c2)C[C@@H](NC[C@H](O)c2ccc(Cl)cc2)CC3)ccc1C(=O)O				0.53	9.11	> 1280	0.62	< 6.00				
CN(C)c1cc(Oc2ccc3c(c2)C[C@@H](NC[C@H](O)c2cccc(Cl)c2)CC3)cc(C(=O)O)c1	189	1470	< 6.00		8.49	> 312		< 6.00	> 95	3.94	2.38	Ratio AUC (Canis familiaris [15]): 0.83; Ratio (Canis familiaris [24]): 1.18
Cc1cc(C(=O)O)ccc1-c1ccc2c(c1)C[C@@H](NC[C@H](O)c1ccc(Cl)cc1)CC2				0.64	8.70	400	0.72	6.10				
O=C(O)c1ccc(-c2ccc3c(c2)C[C@@H](NC[C@H](O)c2ccc(Cl)cc2)CC3)cc1	113	1980	< 6.00	1.25	9.42	2410	0.71	6.04	> 95	14.3	1.7	pEC50 [28]: 7.60; inhibition in vivo at 0.032 mg/kg (Canis familiaris [29]): 33%; fraction unbound [30]: 0.03; Cmax [31]: 65 ng/mL; half-life [16]: 13.6 h; AUC(0-t) at 24 h [32]: 470 ng·h/mL; bioavailability [17]: 81.7%; clearance [18]: 11.4 mL/min/kg; bioavailability [21]: 63.4%; Selectivity ratio [33]: 65.8; half-life [23]: 7.7 h; clearance [25]: 6.7 mL/min/kg; Cmax [34]: 91.2 ng/mL; AUC(0-t) at 24 h [35]: 722 ng·h/mL

More lines, in order of rising pEC50 [7], values ahead:

Cmax [2] [ng/mL]	AUC(0-t) at 24 h [4] [ng·h/mL]	pEC50 [5]	Ratio AUC (Canis familiaris [6])	pEC50 [7]	Ratio EC50 (Homo sapiens)	Ratio (Canis familiaris [8])	pEC50 [10]	bioavailability [11] [%]	half-life [19] [h]	clearance [22] [mL/min/kg]	Compound	further results
21.8	197	< 6.00		8.24	> 170		< 6.00				O=C(O)COc1ccc(-c2ccc3c(c2)C[C@@H](NC[C@H](O)c2cccc(Cl)c2)CC3)cc1	half-life [1]: 1.9 h; bioavailability [3]: 48%; clearance [9]: 8.3 mL/min/kg
		< 6.00		8.33	> 217		< 6.00	64.2	8.3	1.4	COc1ccc(Oc2ccc3c(c2)C[C@@H](NC[C@H](O)c2ccc(Cl)cc2)CC3)cc1C(=O)O	Cmax [12]: 319 ng/mL; AUC(0-t) at 24 h [13]: 1530 ng·h/mL; AUC(0-t) at 24 h [14]: 4580 ng·h/mL; Ratio AUC (Canis familiaris [15]): 0.76; half-life [16]: 11.9 h; bioavailability [17]: 48%; clearance [18]: 2 mL/min/kg; Cmax [20]: 367 ng/mL; bioavailability [21]: > 95%; half-life [23]: 6.7 h; Ratio (Canis familiaris [24]): 0.64; clearance [25]: 5.3 mL/min/kg; AUC(0-t) at 24 h [26]: 1560 ng·h/mL; Cmax [27]: 103 ng/mL
97.4	1980	< 6.00	1	8.55	> 357	1	< 6.00				O=C(O)c1ccc(-c2ccc3c(c2)C[C@@H](NC[C@H](O)c2cccc(Cl)c2)CC3)cc1	half-life [1]: 12.2 h; bioavailability [3]: 71%; clearance [9]: 1.2 mL/min/kg
